How the values were obtained:
[1] = system: A549 lung adenocarcinoma cells; test: A549 cell proliferation / growth inhibition; type: cell-based, human; conditions: for Selected from primary screen for growth inhibition of A549 cells at 50 μM: 50 μM compound, 1 mM glucose; for Selected for having an IC50 ratio (10 mM glucose: 1 mM glucose) of A549 growth higher than WBC-A: IC50 on 10 mM vs 1 mM glucose, compared with WBC-A
Outline: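 A549 growth screened in RPMI with 1 mM glucose, compounds at 50 μM; cell number from counts of Hoechst-stained nuclei after 3 days. Growth curves also followed by IncuCyte phase-contrast confluency over 3–5 days (1000–1500 cells/well), DMSO ≤0.1%, ≥4 technical repeats.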

tps1Δ cells = test: Growth rescue of tps1Δ strain on glucose (growth curves, 2% galactose medium); type: cell-based, S. cerevisiae; conditions: 100 μM compound, 2.5 mM glucose
Outline: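 Growth at 30 °C was tracked by OD595 readings every 30 min, with at least triplicate technical wells. Cells came from 2% galactose synthetic precultures, were washed and set to OD 0.1, and received compound 10 min ahead of the glucose addition.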

SMILES	Selected from primary screen for growth inhibition of A549 cells at 50 μM [1]	Rescue of the tps1Δ strain on 2.5 mM glucose at 100 μM (tps1Δ cells)	Selected for having an IC50 ratio (10 mM glucose: 1 mM glucose) of A549 growth higher than WBC-A [1]
c1ccn2c(Sc3ncnc4sc5c(c34)CCC5)nnc2c1 [60A]	No	No	
O=C(CSc1ncnc2scc(-c3ccccc3)c12)N1CCOCC1 [60C]	No	No	
CCn1nnnc1Sc1ncnc2scc(-c3ccc(C)cc3)c12 [61A]	Yes	No	Lower IC50 ratio
Cc1nc(SCC(N)=O)c2c(C)c(C)sc2n1 [61C]	No	No	
c1ccc2c(c1)sc1nnc(Sc3ncnc4sc5c(c34)CCCC5)n12 [62A]	No	No	
CCCc1nnc(Sc2nc(CN3CCOCC3)nc3scc(-c4cccs4)c23)[nH]1 [62C]	Yes	No	Lower IC50 ratio
Cc1nc(Sc2nnc3n2CCCCC3)c2c3c(sc2n1)CCC3 [63A]	No	No	
Cc1nc(Sc2nnc(-c3ccoc3C)n2C)c2c(-c3cccs3)csc2n1 [63C]	No	No	
Cc1sc2ncnc(Sc3nnc4n3CCCCC4)c2c1C [64A]	No	No	
Cc1cc(C)nc(Sc2nc(CN3CCOCC3)nc3scc(-c4cccs4)c23)n1 [64C]	Yes	No	Lower IC50 ratio
c1nc(Sc2nnc3n2CCCCC3)c2c3c(sc2n1)CCCC3 [65A]	No	No	
Cc1nc(SCC(=O)N2CCOCC2)c2c3c(sc2n1)CCC3 [65C]	No	No	
CCN(CC)Cc1nc(Sc2nnc(C3CC3)n2CCC(N)=O)c2c(C)c(C)sc2n1 [66A]	No	No	
Cc1nc(Sc2nnc(NC3CC3)s2)c2c(-c3cccs3)csc2n1 [66C]	No	No	
Cc1nc(S)c2c(-c3cccs3)csc2n1 [67A]	No	No	
COC(=O)CN(C)c1nc(C)nc2scc(-c3ccc(OC)c(OC)c3)c12 [67C]	Yes	No	Lower IC50 ratio
COc1ccccc1-n1ncc2c(C)nnc(SCC(N)=O)c21 [68C]	No	No	
COCCSc1nnc(C)c2cnn(-c3ccccc3)c12 [69C]	No	No	
Cc1nnc(SCC(=O)N2CCOCC2)c2c1cnn2-c1ccccc1 [70C]	No	No	

SMILES	Selected from primary screen for growth inhibition of A549 cells at 50 μM [1]	Rescue of the tps1Δ strain on 2.5 mM glucose at 100 μM (tps1Δ cells)	Selected for having an IC50 ratio (10 mM glucose: 1 mM glucose) of A549 growth higher than WBC-A [1]
Cc1nnc(SCC(=O)NCc2ccco2)c2c1cnn2-c1ccccc1 [71C]	No	No	
Cc1cc(NC(=O)CSc2nnc(C)c3cnn(-c4ccccc4)c23)no1 [72C]	No	No	
CCOC(=O)CNC(=O)CSc1nnc(C)c2cnn(-c3ccccc3)c12 [73C]	No	No	
CCOC(=O)CSc1nnc(C)c2cnn(-c3ccccc3)c12 [74C]	No	No	
Cc1nnc(SCC(=O)NC(C)(C)C)c2c1cnn2-c1ccccc1 [75C]	No	No	
COC(=O)CSc1nnc(C(C)C)c2cnn(-c3ccc(C)cc3)c12 [76C]	Yes	No	Lower IC50 ratio
COc1ccccc1-n1ncc2c(C)nnc(SCC(=O)N3CCOCC3)c21 [77C]	No	No	
Cc1nc(SCC(=O)N2CCOCC2)c2ccsc2n1 [78C]	No	No	
CCc1nc(SCC(=O)OC)c2c3c(sc2n1)COC(C)(C)C3 [79C]	No	No	
CC(C)Sc1nc(SCCN2CCOCC2)c2c3c(sc2n1)COC(C)(C)C3 [80C]	No	No	
CSc1nc(SCCO)c2c3c(sc2n1)COC(C)(C)C3 [81C]	Yes	No	Lower IC50 ratio
NC(=O)CSc1ncnc2scc(-c3ccccc3)c12 [82C]	No	No	
Cc1nc(SCCN2CCCS2(=O)=O)c2c(C)c(C)sc2n1 [83C]	No	No	
c1nc(SCCN2CCOCC2)c2c3c(sc2n1)CCCC3 [84C]	No	No	
Cc1nc(NCCN2CCOCC2)c2c(-c3ccccc3)csc2n1 [85C]	Yes	No	Higher IC50 ratio, but false-positive
COC(=O)CSc1ncnc2scc(-c3ccccc3)c12 [86C]	No	No	
Cc1nc(Sc2nnc3n2CCC(CN=[N+]=[N-])CC3)c2c(-c3cccs3)csc2n1 (stereo not shown) [87C]	Yes	Yes	Lower IC50 ratio
Cc1nc(Sc2nnc3n2CCCCC3)c2c(-c3cccs3)csc2n1 [A]	Yes	Yes	

— patent US20240252508A1, “Novel glucose uptake inhibitors for use in the treatment of cancer” (NOVELYEAST BV, priority 2021, published 2024)
